Key:
[1] = Comparative test of solubility of the solid dispersions in polymer; format: physicochemical; conditions: simulated gastric fluid, thermodynamic from solid, simulated gastric juice (pH 1.2), 25° C., itraconazole:hydrophilic polymer=1:1.5 (w/w), n=3, Average ± Standard deviation
[2] = cited from earlier work
[3] = pH 8.1 aqueous buffer/n-octanol system; cited from earlier work

For `CCC(C)n1ncn(-c2ccc(N3CCN(c4ccc(OCC5COC(Cn6cncn6)(c6ccc(Cl)cc6Cl)O5)cc4)CC3)cc2)c1=O` (mixture of isomers) [itraconazole, (±)-cis-4-[4-[4-[4-[[2-(2,4-dichlorophenyl)-2-(1H-1,2,4-triazol-1-ylmethyl)-1,3-dioxolan-4-yll]methoxy]phenyl]-1-piperazinyl]phenyl]-2,4-dihydro-2-(1-methylpropyl)-3H-1,2,4-triazol-3-one], the solubility at 24 h [1] is given as 1.38 ± 0.11 µg/mL, the “solubility in diluted acidic solution” value ([2]; diluted acidic solution) is given as “less than 5 μg/ml” and the solubility in water ([2]; water) is given as “less than 1 μg/ml”. For the same compound, the oil/water partition coefficient [3] was 5.66.
